According to patent USRE40594E1, “Inhibitors of the bitter taste response” (Mount Sinai School of Medicine of New York University, priority 1998, dated 2008):
Where a name gives a salt, the structure may show the parent alone. Read-outs that look alike come from different tables or passages of the source.

Test system: bovine taste receptor cell membranes (taste receptors) with transducin
Experiment: G protein activation assay (trypsin sensitivity): activation of transducin by bitter tastant plus taste membranes
Format: biochemical, Bovine (Bos primigenius)
Settings: for inhibition of taste membrane-dependent activation of transducin by DEN (AMP analogues): DEN 5.0 mM, test compound 5.0 mM, FIG. 2; for inhibition of in vitro activation of transducin (G-protein) by taste membranes plus bitter compounds, summary statement: DEN, QUI and other bitter compounds, concentrations not given
From the text: Taste receptor is contacted with gustducin or transducin and tastant, in the presence or absence of test inhibitor, under conditions suitable for activation of the G-protein present. […] In specific non-limiting embodiments, a subunits of transducin or gustducin may be combined with βγ subunits prior to this step, as set forth above. To the reaction mixture comprising taste receptors and gustducin or transducin, test inhibitor and/or bitter tastant may be added, and the resulting solution incubated to permit interaction of the elements.
In preferred embodiments, activation is assessed by a trypsin digestion assay. […] In a specific, non-limiting example, to perform a trypsin digestion assay according to the invention, TPCK-treated trypsin (1:25 trypsin to total protein in the reaction mixture) may be added, and the digestion may be performed at room temperature for about 15 minutes and stopped by adding soybean trypsin inhibitor (6:1 mol/mol inhibitor to trypsin). […] The separated polypeptides may then be transferred by electro-blotter to a poly (vinylidene difluoride) membrane blocked by the addition of 5% BLOTTO [50 mM Tris-HCI, pH 7.4/100 mM NaCl/5% nonfat dry milk], (30 min). G-protein peptides may then be visualized by binding of antibody directed toward transducin or gustducin, followed, for example, by binding of a detectably labeled secondary antibody. If a horseradish peroxidase-labeled secondary antibody is used, binding may be visualized by developing with bicinchoninic acid staining reagents and exposure to x-ray film.
G Protein Activation Assays. Bovine (Bos primigenius) tongues were collected fresh from a local slaughterhouse and transported on ice to the laboratory. Circumvallate papillae were hand dissected, frozen in liquid nitrogen, and stored at −80° C. until use. […] The pelleted membranes were rinsed twice, resuspended in homogenization buffer lacking protease inhibitors, and further homogenized by 20 passages through a 25-gauge needle. Aliquots were either flash frozen or stored on ice until use. […] The separated polypeptides were transferred by electro-blotter to a poly (vinylidene difluoride) membrane, which was blocked by the addition of 5% BLOTTO [50 mM Tris-HCI, pH 7.4/100 mM NaCl/5% nonfat dry milk], (30 min), then transducin peptides were visualized by binding of transducin antiserum and horseradish peroxidase-labeled goat anti-rabbit secondary antibody, followed by developing with bicinchoninic acid staining reagents from Bio-Rad and exposure to x-ray film.
Chemicals. All bitter tastant and buffer chemicals were of the highest purity available and were purchased either from Sigma or Boehringer Mannheim, unless otherwise noted. […] The rabbit polyclonal antitransducin antibody was a kind gift of Mel Simon and John Watson (California Institute of Technology, Pasadena, Calif.).

## O=C(O)/C=C/c1ccc(O)c(O)c1 [caffeic acid, reference compound]
Tastant itself, no inhibitor
  activation of transducin by the tastant in the presence of taste membranes: activated transducin

## Nc1ncnc2c1ncn2[C@@H]1O[C@H](COP(=O)(O)OP(=O)(O)OP(=O)(O)O)[C@@H](O)[C@H]1O [ATP, adenosine 5′ triphosphate]
  inhibition of taste membrane-dependent activation of transducin by DEN (AMP analogues): potently inhibited
  inhibition of in vitro activation of transducin (G-protein) by taste membranes plus bitter compounds, summary statement: successfully inhibit

## CC[N+](CC)(CC(=O)Nc1c(C)cccc1C)Cc1ccccc1 [DEN, denatonium benzoate, reference compound]
Tastant itself, no inhibitor
  activation of transducin by the tastant in the presence of taste membranes: activated transducin

## Nc1ncnc2c1ncn2[C@@H]1O[C@H](CO)[C@@H](O)[C@H]1OP(=O)(O)O [adenosine 2′-monophosphate]
  inhibition of in vitro activation of transducin (G-protein) by taste membranes plus bitter compounds, summary statement: successfully inhibit
Concentration not given, not shown in FIG. 2
  inhibition of DEN/taste receptor activation of transducin: potently inhibited

## Nc1ccn([C@@H]2O[C@H](COP(=O)(O)O)[C@@H](O)[C@H]2O)c(=O)n1 [CMP, 5′-cytidylic acid]
  inhibition of taste membrane-dependent activation of transducin by DEN (AMP analogues): inhibited
  inhibition of in vitro activation of transducin (G-protein) by taste membranes plus bitter compounds, summary statement: successfully inhibit
Listed as 5′-Cytidylic acid
  inhibition of taste membrane-dependent activation of transducin by DEN (AMP analogues): partially inhibited

## Nc1ncnc2c1ncn2[C@@H]1O[C@H](CO)[C@@H](OP(=O)(O)O)[C@H]1O [3′AMP, adenosine 3′ monophosphate]
  inhibition of taste membrane-dependent activation of transducin by DEN (AMP analogues): potently inhibited
  inhibition of in vitro activation of transducin (G-protein) by taste membranes plus bitter compounds, summary statement: successfully inhibit

## Nc1ncnc2c1ncn2[C@@H]1O[C@H](COP(=O)(O)OP(=O)(O)O)[C@@H](O)[C@H]1O [ADP, adenosine 5′ diphosphate]
  inhibition of taste membrane-dependent activation of transducin by DEN (AMP analogues): potently inhibited
  inhibition of in vitro activation of transducin (G-protein) by taste membranes plus bitter compounds, summary statement: successfully inhibit

## Cn1c(=O)c2c(ncn2C)n(C)c1=O [CAF, caffeine, reference compound]
  inhibition of taste membrane-dependent activation of transducin by DEN (AMP analogues): not inhibited
Listed as caffeine
  inhibition of taste membrane-dependent activation of transducin by DEN (AMP analogues): did not block

## Nc1ncnc2c1ncn2[C@@H]1O[C@H](COC(=O)CCC(=O)O)[C@@H](O)[C@H]1O [ASU, adenosine 5′-succinate]
  inhibition of taste membrane-dependent activation of transducin by DEN (AMP analogues): inhibited
  inhibition of in vitro activation of transducin (G-protein) by taste membranes plus bitter compounds, summary statement: successfully inhibit
Listed as adenosinc 5′-succinate
  inhibition of taste membrane-dependent activation of transducin by DEN (AMP analogues): potently inhibited

## C[C@@H]1O[C@@H](O[C@H]2[C@H](Oc3cc(O)c4c(c3)O[C@H](c3ccc(O)cc3)CC4=O)O[C@H](CO)[C@@H](O)[C@@H]2O)[C@H](O)[C@H](O)[C@H]1O [naringin, reference compound]
Tastant itself, no inhibitor
  activation of transducin by the tastant in the presence of taste membranes: activated transducin

## C1CCN2C[C@@H]3C[C@@H](CN4CCCC[C@@H]34)[C@H]2C1 [sparteine, reference compound]
Tastant itself, no inhibitor
  activation of transducin by the tastant in the presence of taste membranes: activated transducin

## Cn1c(=O)c2[nH]cnc2n(C)c1=O [THE, theophylline, reference compound]
  inhibition of taste membrane-dependent activation of transducin by DEN (AMP analogues): not inhibited
Listed as theophylline
  inhibition of taste membrane-dependent activation of transducin by DEN (AMP analogues): did not block

## Cl.Nc1ncnc2c1ncn2[C@@H]1O[C@H](CO)[C@@H](O)[C@H]1O [ADO, adenosine hydrochloride]
hydrochloride
  inhibition of taste membrane-dependent activation of transducin by DEN (AMP analogues): not inhibited
Listed as adenosine, hydrochloride
  inhibition of taste membrane-dependent activation of transducin by DEN (AMP analogues): did not block

## Nc1ncnc2c1ncn2[C@@H]1O[C@H](C(=O)O)[C@@H](O)[C@H]1O [ACA, adenosine 5′-carboxylate]
  inhibition of taste membrane-dependent activation of transducin by DEN (AMP analogues): not inhibited
Listed as adenosine 5′-carboxylate
  inhibition of taste membrane-dependent activation of transducin by DEN (AMP analogues): did not block

## Cl.Nc1ncnc2nc[nH]c12 [ADE, adenine hydrochloride]
hydrochloride
  inhibition of taste membrane-dependent activation of transducin by DEN (AMP analogues): not inhibited
Listed as adenine, hydrochloride
  inhibition of taste membrane-dependent activation of transducin by DEN (AMP analogues): did not block

## Cc1cn([C@H]2C[C@H](O)[C@@H](COP(=O)(O)O)O2)c(=O)[nH]c1=O [TMP, thymidine 5′-monophosphate]
  inhibition of taste membrane-dependent activation of transducin by DEN (AMP analogues): inhibited
  inhibition of in vitro activation of transducin (G-protein) by taste membranes plus bitter compounds, summary statement: successfully inhibit
Listed as thymidine 5′-monophosphate
  inhibition of taste membrane-dependent activation of transducin by DEN (AMP analogues): potently inhibited

## Nc1ncnc2c1ncn2[C@@H]1O[C@H](COS(=O)(=O)O)[C@@H](O)[C@H]1O [AMS, adenosine 5′-monosulfate]
  inhibition of taste membrane-dependent activation of transducin by DEN (AMP analogues): not inhibited
Listed as adenosine 5′-monosulfate
  inhibition of taste membrane-dependent activation of transducin by DEN (AMP analogues): did not block

## CCN(CC)CCCC(C)Nc1c2ccc(Cl)cc2nc2ccc(OC)cc12 (stereo not shown) [quinacrine, reference compound]
Tastant itself, no inhibitor
  activation of transducin by the tastant in the presence of taste membranes: activated transducin

## nicotine hemisulfate [reference compound]
  activation of transducin by the tastant in the presence of taste membranes: activated transducin

## CN1[C@@H]2CC[C@H]1C[C@@H](OC(=O)C(CO)c1ccccc1)C2 (stereo partly shown) [atropine, atropine hydrochloride, reference compound]
Tastant itself, no inhibitor
  activation of transducin by the tastant in the presence of taste membranes: activated transducin

## C=C[C@H]1C[N@@]2CC[C@H]1C[C@H]2[C@H](O)c1ccnc2ccc(OC)cc12 [QUI, quinine hydrochloride, reference compound]
Tastant itself, no inhibitor
  activation of transducin by the tastant in the presence of taste membranes: activated transducin
